Converted amounts (≈) assume the structure as drawn.
What was measured:
rat thrombocytes = test: Inhibition of the collagen-induced aggregation of rat thrombocytes ex vivo; assay type: in vivo, rat (male Sprague-Dawley); details: rats; for ED (33%): Rattus norvegicus, dose which inhibits the collagen-induced aggregation by 33%, read-out: Inhibition of thrombocyte aggregation, ED 33%; for ED (33%) / Inhibition of thrombocyte aggregation, R.A. (relative activity): oral administration; for Inhibition of thrombocyte aggregation, R.A. (relative activity): acetylsalicylic acid = 1.00; for Inhibition of thrombocyte aggregation after oral administration in vivo (in words): versus acetylsalicylic acid
Method: (§1) Thrombocyte-rich plasma is obtained by centrifuging venous citrate blood (300 g, 10 minutes duration at 4° C.). The photometric measurement of the thrombocyte aggregation is carried out with addition of MgCl2 (final concentration 10 millimoles/l) and of collagen Stago (final concentration 0.02 mg/ml) in a Born Mk 3 aggregometer. The maximum extinction change/sec is used as a measure of the aggregation.
2. Inhibition of the collagen-induced aggregation of rat thrombocytes ex vivo.
The substances are administered orally to groups of 10-15 male Sprague-Dawley rat weighing 200-250 g. 1-4 hours after administration, blood is taken under ether narcosis and thrombocyte-rich plasma is obtained by centrifuging. The aggregation after addition of collagen is measured as indicated above. The ED 33% is determined as the dose which inhibits the collagen-induced thrombocyte aggregation by 33%.
(§2) The effective doses or effective concentrations were calculated from the linear relationships between the logarithm of the dose or concentration and the logarithm of the effect, by means of regression analysis.
(§3) Acetylsalicylic acid was used as the reference substance for the inhibition of thrombocyte aggregation and dihydralazine for the anti-hypertensive effect.

human thrombocytes = test: Inhibition of the collagen-induced aggregation of human thrombocytes in vitro; assay type: cell-based; details: human thrombocytes in vitro; for EC50: 10 min, concentration which inhibits the collagen-induced aggregation by 50%, 10 minutes incubation, read-out: Inhibition of collagen-induced thrombocyte aggregation in vitro, EC 50%; for Inhibition of aggregation, R.A. (relative activity): acetylsalicylic acid = 1.00
Method: 1. Inhibition of the collagen-induced aggregation of human thrombocytes in vitro.
as §1
The aggregation-inhibiting activity of the substances is tested after an incubation time of 10 minutes.
The EC 50% is taken to be the concentration causing 50% inhibition of aggregation.
as §2, §3

[1] = tested on: spontaneously hypertonic rats; test: Anti-hypertensive effect on spontaneously hypertonic rats; assay type: in vivo, rat (male spontaneously hypertonic Okamoto); details: for ED (20%): Rattus norvegicus, 2 h, dose which lowers the blood pressure by 20% compared to the control group; for ED (20%) / Anti-hypertensive effect, R.A.: oral administration; for Anti-hypertensive effect, R.A.: dihydralazine = 1.00
Method: 4. Anti-hypertensive effect on spontaneously hypertonic rats.
The substances are administered orally to groups of 4-8 male spontaneously hypertonic Okamoto rats weighing 270-340 g. Before, and 2 hours after, the administration, the systolic blood pressure is measured non-surgically by means of piezo-electric crystal sensors.
The ED 20% is determined as the dose which lowers the systolic pressure by 20%, taking into account the values found with untreated control animals.
as §2, §3

narcotized rats = test: Anti-hypertensive effect on narcotized rats; assay type: in vivo, rat (male Sprague-Dawley); details: rats under urethane narcosis, intraperitoneal; for ED (20%): Rattus norvegicus, ip, dose which lowers the blood pressure by 20%, read-out: Reduction in blood pressure, ED 20%; for Reduction in blood pressure, R.A. (relative activity): dihydralazine = 1.00
Method: 3. Anti-hypertensive effect on narcotized rats.
To test the anti-hypertensive effect, the substances are administered intraperitoneally to groups of 3-5 male Sprague-Dawley rats weighing 240-280 g, under urethane narcosis ([…] given intraperitoneally).
The measurement of the blood pressure in the carotid artery is carried out by means of Statham transducers. The ED 20% is determined as the dose which lowers the mean carotid blood pressure by 20%.
as §2, §3

Row | Compound | ED (33%) (rat thrombocytes) | Inhibition of thrombocyte aggregation, R.A. (relative activity) (rat thrombocytes) | Inhibition of thrombocyte aggregation after oral administration in vivo (in words) (rat thrombocytes) | EC50 (human thrombocytes) | Inhibition of aggregation, R.A. (relative activity) (human thrombocytes) | ED (20%) [1] | Anti-hypertensive effect in spontaneously hypertonic rats after oral administration (in words) [1] | Anti-hypertensive effect, R.A. [1] | ED (20%) (narcotized rats) | Reduction in blood pressure, R.A. (relative activity) (narcotized rats)
1 | CCC(=O)Nc1ccc(C2=NNC(=O)C3CC23)cc1 (stereo not drawn) [Example 11, 2-(p-propionylaminophenyl)-3,4-diaza-bicyclo[4.1.0]hept-2-en-5-one] | 1.48 mg/kg | 90.54 | far surpasses the effect of acetylsalicylic acid | 0.28 µg/mL (≈ 1.09 µM) | 1760 | 10 mg/kg | demonstrable | 0.69 | 0.134 mg/kg | 2.52
2 | O=C(Nc1ccc(C2=NNC(=O)C3CC23)cc1)C1CC1 (stereo not drawn) [Example 13, 2-(p-cyclopropylcarbonylaminophenyl)-3,4-diaza-bicyclo[4.1.0]hept-2-en-5-one hemihydrate] | 2.5 mg/kg | 53.60 | far surpasses the effect of acetylsalicylic acid | 5.57 µg/mL | 89 | 2.78 mg/kg | demonstrable | 2.46 | 0.0465 mg/kg | 7.25
3 | CC(Cl)C(=O)Nc1ccc(C2=NNC(=O)C3CC23)cc1 (stereo not drawn) [Example 20, 2-[p-(2-chloropropionylamino)-phenyl]-3,4-diaza-bicyclo[4.1.0]hept-2-en-5-one] | 3.74 mg/kg | 35.83 | far surpasses the effect of acetylsalicylic acid | 0.99 µg/mL (≈ 3.39 µM) | 499 | 10 mg/kg | demonstrable | 0.69 | 0.278 mg/kg | 1.21

— patent publication US4271163A, “Novel 3,4-diaza-bicyclo[4.1.0]hept-2-en-5-ones, their preparation, and therapeutic agents containing these compounds” (BASF Aktiengesellschaft, priority 1978, dated 1981)
